Results as given in article PMC3390974 (ACS medicinal chemistry letters, 2011).

Key:
Assay in all cases: Gαq-mediated intracellular calcium mobilization
human 5-HT2B receptor = human 5-HT2B receptor (Homo sapiens, UniProt P41595); details: calcium flux, HEK-293
human 5-HT2A receptor = human 5-HT2A receptor (Homo sapiens, UniProt P28223); details: calcium flux, HEK-293
[1] = biological target: T1, human 5-HT2C (INI) receptor (Homo sapiens, UniProt P28335); details: for Emax: HEK293, read-out: 5-HT2C Emax, percentage of maximal activation by 5-HT, or activation at 10 μM for NA; for agonism at the 5-HT2C receptor (in words): calcium flux, HEK-293
T1 sequence (P28335 33-458): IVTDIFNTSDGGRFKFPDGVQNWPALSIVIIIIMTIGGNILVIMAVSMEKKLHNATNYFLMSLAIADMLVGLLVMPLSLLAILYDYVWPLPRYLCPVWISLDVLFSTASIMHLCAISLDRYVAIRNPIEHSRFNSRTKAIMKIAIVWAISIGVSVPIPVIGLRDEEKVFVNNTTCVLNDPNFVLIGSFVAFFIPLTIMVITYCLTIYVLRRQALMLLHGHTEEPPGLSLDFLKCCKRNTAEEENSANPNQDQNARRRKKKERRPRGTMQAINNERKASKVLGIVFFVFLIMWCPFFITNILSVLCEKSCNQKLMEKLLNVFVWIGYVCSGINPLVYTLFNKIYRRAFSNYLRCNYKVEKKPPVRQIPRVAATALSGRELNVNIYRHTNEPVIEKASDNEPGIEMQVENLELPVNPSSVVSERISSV

Sequence of human 5-HT2B receptor (P41595 whole entry): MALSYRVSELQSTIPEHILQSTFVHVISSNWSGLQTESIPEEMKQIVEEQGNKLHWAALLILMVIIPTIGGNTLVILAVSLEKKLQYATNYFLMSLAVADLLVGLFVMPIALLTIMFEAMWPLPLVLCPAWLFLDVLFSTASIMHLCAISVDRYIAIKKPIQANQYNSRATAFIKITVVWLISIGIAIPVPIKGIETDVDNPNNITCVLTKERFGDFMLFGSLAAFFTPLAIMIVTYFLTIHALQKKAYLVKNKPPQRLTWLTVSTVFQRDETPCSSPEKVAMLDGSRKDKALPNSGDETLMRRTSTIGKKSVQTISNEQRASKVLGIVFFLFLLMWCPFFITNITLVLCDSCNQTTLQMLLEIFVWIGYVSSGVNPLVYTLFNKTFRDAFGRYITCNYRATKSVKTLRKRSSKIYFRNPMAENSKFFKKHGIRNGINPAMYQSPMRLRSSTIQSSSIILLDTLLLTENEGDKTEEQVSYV
Sequence of human 5-HT2A receptor (P28223 whole entry): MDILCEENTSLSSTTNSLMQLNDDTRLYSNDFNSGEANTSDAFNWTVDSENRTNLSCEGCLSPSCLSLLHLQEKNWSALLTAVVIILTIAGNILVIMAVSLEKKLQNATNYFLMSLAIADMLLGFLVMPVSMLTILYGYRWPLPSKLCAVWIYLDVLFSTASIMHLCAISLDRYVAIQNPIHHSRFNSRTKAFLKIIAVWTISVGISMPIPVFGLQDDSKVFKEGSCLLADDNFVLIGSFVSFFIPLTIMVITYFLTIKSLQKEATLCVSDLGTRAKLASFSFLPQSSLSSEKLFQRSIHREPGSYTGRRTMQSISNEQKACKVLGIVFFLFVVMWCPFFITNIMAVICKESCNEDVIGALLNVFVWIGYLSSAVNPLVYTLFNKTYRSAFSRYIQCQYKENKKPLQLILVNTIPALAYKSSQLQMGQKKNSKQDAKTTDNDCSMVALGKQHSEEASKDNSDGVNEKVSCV

| Compound | agonism at the 5-HT2B receptor (in words) (human 5-HT2B receptor) | agonism at the 5-HT2A receptor (in words) (human 5-HT2A receptor) | agonism at the 5-HT2C receptor (in words) [1] | also measured |
| --- | --- | --- | --- | --- |
| Cl.NC[C@H]1C[C@@H]1c1ccccc1OCC1CC1 (racemic) [Compound 11e, trans-[2-(2-cyclopropylmethoxyphenyl)cyclopropyl]methylamine hydrochloride] | inactive |  |  |  |
| Cl.NC[C@H]1C[C@@H]1c1ccccc1OCC1CC1 (single isomer, unassigned) [(+)-11e, (+)-trans-[2-(2-cyclopropylmethoxyphenyl)cyclopropyl]methylamine hydrochloride] | activate neither | activate neither |  | agonism at the 5-HT2B receptor (in words) (human 5-HT2B receptor; listed as (+)-trans-[2-(2-cyclopropylmethoxyphenyl)cyclopropyl]methylamine hydrochloride): no detectable agonism |
| COc1ccc(-c2ccccc2)cc1[C@H]1C[C@@H]1CN [Compound 9a] |  |  |  | EC50 [1]: 3.47 µM; Emax [1]: 67% |
| COc1ccc(-c2ccccc2C)cc1[C@H]1C[C@@H]1CN [Compound 9b] |  |  |  | EC50 [1]: 3.8 µM; Emax [1]: 64% |
| CCCCc1ccc(-c2ccc(OC)c([C@H]3C[C@@H]3CN)c2)cc1.Cl [Compound 9h] | failure | failure | failure |  |
| Cc1ccc(OCC(C)C)c([C@H]2C[C@@H]2CN)c1.Cl [Compound 10a] |  |  | much less potent |  |
| CCCCOc1ccc(C)cc1[C@H]1C[C@@H]1CN.Cl [Compound 10b] |  |  | much less potent |  |
| CC(C)COc1ccccc1[C@H]1C[C@@H]1CN.Cl [Compound 11c] | inactive |  |  |  |
| CCCCCOc1ccccc1[C@H]1C[C@@H]1CN.Cl [Compound 11d] | abolished agonist activity | abolished agonist activity | abolished agonist activity |  |
| Cl.NC[C@H]1C[C@@H]1c1ccccc1OCC1CCCCC1 [Compound 11g] | abolished agonist activity | abolished agonist activity | abolished agonist activity |  |
